The assay concerns caspase 3/7 in 22Rv1 cells. The experiment in a line: Caspase-Glo 3/7 assay 22Rv1. Format: cell-based. The following applies: read-out: EC50 Caspase-Glo 3/7, 24h.

For `Cc1ncsc1-c1ccc([C@H](C)NC(=O)[C@@H]2C[C@@H](O)CN2C(=O)[C@@H](NC(=O)COCCCOCCNC(=O)C[C@@H]2N=C(c3ccc(Cl)cc3)c3c(sc(C)c3C)-n3c(C)nnc32)C(C)(C)C)cc1` [ARV-771], the EC50 came out at 90 nM.

The values are drawn from paper PMC7611906 (Nature chemical biology, 2021).
